Measurements from US20100047841A1, “SYNTHESIS OF DESACETOXYTUBULYSIN H AND ANALOGS THEREOF” (University of Pittsburgh-of the Commonwealth System of …, priority 2007, published 2010).
Where a name gives a salt, the structure may show the parent alone. Read-outs that look alike come from different tables or passages of the source.

Assays:
[1] = test system: bovine brain tubulin (peptide/depsipeptide site); assay: Inhibition of [3H]dolastatin 10 binding to tubulin (centrifugal gel filtration); settings: 10 μM radiotracer, 10 μM tubulin; for % Inhibition of [3H]dolastatin 10 binding by 5 μM test agent: 30 min room temperature; for IC50: test agent 0.5-100 μM, Hill fit
Protocol: The new compounds were tested for their abilities to bind at the vinca domain and at the related peptide/depsipeptide site on tubulin using a modification of a centrifugal gel filtration method described by Bai et al., Mol. Pharmacol. 7: 965-76 (1995). In the initial screens, each 0.32 mL reaction mixture contained 5 μM test agent and 10 μM [^3H]vinblastine (specific activity 8.50 Ci/mmol; GE Healthcare Bio-Sciences, Picataway, N.J.) or 10 μM [^3H]dolastatin 10 (specific activity 1.96 Ci/mmol; obtained from the Drug Synthesis and Chemistry Branch of the National Cancer Institute) predissolved in DMSO (final concentration 1% v/v) and 10 μM bovine brain tubulin, all in 0.1 M 2-(4-morpholino)ethanesulfonic acid (Mes), pH 6.9, containing 0.5 mM MgCl2. The mixture was incubated for 30 min at room temperature. Two 0.15 mL aliquots of the reaction mixture were applied to duplicate 2 mL beds of pre-swollen (in Mes, pH 6.9, containing 0.5 mM MgCl2) Sephadex G-50 (superfine) contained in Handee columns (Pierce Biotechnology, Rockford, Ill.). The columns were centrifuged at 800×g for 4 minutes and the protein concentration in the effluent was determined, using the bicinchoninic acid assay. The amount of radiolabeled ligand bound to tubulin was determined using scintillation spectrometry. Each value represents the mean ±SD of four determinations. […] Inhibition was calculated as the percent difference relative to that of the control incubation with DMSO (i.e., without test agent—assigned as 0% inhibition). […] GraphPad Prism was used to fit the resulting data to the Hill equation to determine the IC50 values.

[2] = test system: T98G human glioblastoma cell line; assay: Antiproliferative assay (MTS), GI50 in T98G cells; format: cell-based; settings: for GI50: Homo sapiens, T98G
Source text: General methods are known for determining the effect of compounds on proliferation of cells. See, e.g., Zhu et al., J. Med. Chem., 2006, 49, 2063-2076. Cells can be selected by one of skill in the art and can be maintained as exponentially growing cultures in a suitable medium (e.g., RPMI 1640 medium) with adjuvents, including FBS, penicillin, and glutamine, provided at levels known to those skilled in this field. For human cancer cells, e.g., human glioblastoma cell line T98G, the cells can be trypsinized and washed prior to formation of a cell suspension in appropriate buffer and plating of the cell suspension. Typical microtiter plate amounts can be 500-2000 cells/well. The cells can be allowed to attach and grow for a defined time period (e.g., 36 hours, 72 hours, 96 hours, or other defined period) before treatment with either vehicle (e.g., dimethylsulfoxide) or test agent (e.g., compound of the invention) followed by an additional defined time period (e.g., 36 hrs, 72 hrs, 96 hrs, and the like). At the end of the additional defined time period, viability of the cells can be determined by any of a variety of methods known in the art, including assays employing MTS (3-(4,5-dimethylthiazol-2-yl)-5-(3-carboxymethoxyphenyl)-2-(4-sulfophenyl)-2H-tetrazolium), as described by -Cory et al., Cancer Commun., 1991, 3, 207-212. […] Replicates are typically assayed to allow determination of appropriate statistical properties as known in the art.
Compounds of the invention with structures of Formulae Xa, XVb, and XVa were assayed for inhibition of growth of the T98G human glioblastoma cell line (Table II).
Human glioblastoma T98G cells (American Type Culture Collection, Manassas, Va.) were maintained as exponentially growing cultures in an RPMI 1640 medium with 10% FBS, 1% penicillin and 1% glutamine. The cells were seeded into 96-well plates and allowed to attach and grow for 48 hours. One plate of cells was used for a time zero cell number determination (N=16), and cells in other plates were treated for 72 hours or 96 hours with either DMSO (1% v/v; N=8 for each plate) or a range of concentrations, in quadruplicate, of test agents. Cell number was determined spectrophotometrically at 490 nm minus absorbance at 630 nm after exposure to 3-(4,5-dimethylthiazol-2-yl)-5-(3-carboxymethoxyphenyl)-2-(4-sulfophenyl)-2H-tetrazolium (MTS) and N-methylphenazine methylsulfate. The fifty percent growth inhibitory concentrations (GI50) of test agents were calculated from the spectrophotometrically determined growth of the control cells over the 72- or 96-hour period.

[3] = 72 h, read-out: GI50 at (72 h) in T98 glioblastoma cells
[4] = 72 h, read-out: GI50 in T98G cell, 72 h
[5] = 96 h, read-out: GI50 at 96 h in T98 glioblastoma cells
[6] = 96 h, read-out: GI50 in T98G cell, 96 h

Row | SMILES | % Inhibition of [3H]dolastatin 10 binding by 5 μM test agent [1] [%] | IC50 [1] [nM] | loss in antiproliferative GI50 compared to dolastatin 10 and tubulysins A or D [2] | GI50 ([2]; 72 h) [nM] | GI50 [2, 3] [nM] | GI50 [2, 4] [nM] | GI50 ([2]; 96 h) [nM] | GI50 [2, 5] [nM] | GI50 [2, 6] [nM]
1 | CCC(C)[C@H](NC(=O)[C@H]1CCCCN1C)C(=O)N(C)[C@H](C[C@@H](OC(C)=O)c1nc(C(=O)N[C@@H](Cc2ccccc2)C[C@H](C)C(=O)O)cs1)C(C)C (stereo partly drawn) [WZY-III-63C, N^14-Desacetoxytubulysin H trifluoroacetic acid salt] | 31 ± 3 | 10000 ± 1000 | 1-2 orders of magnitude | 430 to 4400 | 4.4 | 4.4 ± 11 | 350 to 16000 | 1.6 ± 0.8 | 1.6 ± 0.8
2 | CCC(C)[C@H](NC(=O)CN(C)C)C(=O)N(C)[C@H](C[C@H](OC(C)=O)c1nc(C(=O)N[C@@H](Cc2ccccc2)C[C@H](C)C(=O)O)cs1)C(C)C (stereo partly drawn) [WZY-III-64A, (2S,4R)-4-(2-((6S,9R,11S)-6-sec-Butyl-9-isopropyl-2,8-dimethyl-4,7,13-trioxo-12-oxa-2,5,8-triazatetradecan-11-yl)thiazole-4-carboxamido)-2-methyl-5-phenylpentanoic acid] | −11 ± 10 | – | – | 430 to 4400 | 590 | 590 ± 1000 | 350 to 16000 | 400 ± 30 | 400 ± 30
3 | CCC(C)[C@H](NC(=O)CN(C)C)C(=O)N(C)[C@H](C[C@@H](OC(C)=O)c1nc(C(=O)N[C@@H](Cc2ccccc2)C[C@H](C)C(=O)O)cs1)C(C)C (stereo partly drawn) [WZY-III-69A, (2S,4R)-4-(2-((6S,9R,11R)-6-sec-Butyl-9-iso-propyl-2,8-dimethyl-4,7,13-trioxo-12-oxa-2,5,8-triazatetradecan-11-yl)thiazole-4-carboxamido)-2-methyl-5-phenylpentanoic acid] | 4 ± 3 | 64000 ± 9000 | – | 430 to 4400 | 430 | 430 ± 130 | 350 to 16000 | 350 ± 40 | 350 ± 40
